# Literature values in publication PMC8124668, “Preclinical Assessment Addressing Intravenous Administration of a [^68Ga]Ga-PSMA-617 Microemulsion: Acute In Vivo Toxicity, Tolerability, PET Imaging, and Biodistribution” (Molecules, 2021).
# Test system: male rats
# Parameters: method as in PMID 28283702
# Conditions: once weekly IV bolus on days 1, 8, 15 and 22, at 400 mg/kg
structure (smiles),measurement,value
"O=C(O)CCC(NC(=O)NC(CCCCNC(=O)C(Cc1ccc2ccccc2c1)NC(=O)C1CCC(CNC(=O)CN2CCN(CC(=O)O)CCN(CC(=O)O)CCN(CC(=O)O)CC2)CC1)C(=O)O)C(=O)O (stereo not shown) [PSMA-617, 2-[3-(1-Carboxy-5-{3-naphthalen-2-yl-2-[(4-{[2-(4,7,10-tris-carboxymethyl-1,4,7,10-tetraaza-cyclododec-1-yl)-acetylamino]-methyl}-cyclohexanecarbonyl)-amino]-propionylamino}-pentyl)-ureido]-pentanedioic acid]",local or systemic intolerance reactions,No signs of local or systemic intolerance reactions
